In patent US20080287517A1, “Pyrazole Derivatives as Cb1 Modulators” (priority 2005, published 2008) one finds IC50 data, which are given here for 1 molecule.

This experiment addresses T1, CB1 receptor (Homo sapiens, UniProt P21554).
T1 construct: expressed in transfected cells
Briefly: [35S]-GTPγS binding assay on membranes from cells stably transfected with the CB1 gene, inhibition of CP55940 (EC80) stimulated binding. It is filed as biochemical. As to conditions: concentration giving half maximal inhibition of GTPγS binding; EC80 of agonist CP55940. Here is the method:
10 μg of membranes prepared from cells stably transfected with the CB1 gene were suspended in 200 μl of 100 mM NaCl, 5 mM MgCl2, 1 mM EDTA, 50 mM HEPES (pH 7.4), 1 mM DTT, 0.1% BSA and 100 μM GDP. To this was added an EC80 concentration of agonist (CP55940), the required concentration of test compound and 0.1 μCi [^35S]-GTPγS. The reaction was allowed to proceed at 30° C. for 45 min. Samples were then transferred on to GF/B filters using a cell harvester and washed with wash buffer (50 mM Tris (pH 7.4), 5 mM MgCl2, […]). Filters were then covered with scintillant and counted for the amount of [^35S]-GTPγS retained by the filter.
Activity is measured in the absence of all ligands (minimum activity) or in the presence of an EC80 concentration of CP55940 (maximum activity). These activities are set as 0% and 100% activity respectively. At various concentrations of novel ligand, activity is calculated as a percentage of the maximum activity and plotted. The data are fitted using the equation y=A+((B−A)/1+((C/x)UD)) and the IC50 value determined as the concentration required to give half maximal inhibition of GTPγS binding under the conditions used.
In general terms: GTPγS is a poorly hydrolysed GTP analogue; its binding reports G protein activation.

T1 sequence (P21554 whole entry): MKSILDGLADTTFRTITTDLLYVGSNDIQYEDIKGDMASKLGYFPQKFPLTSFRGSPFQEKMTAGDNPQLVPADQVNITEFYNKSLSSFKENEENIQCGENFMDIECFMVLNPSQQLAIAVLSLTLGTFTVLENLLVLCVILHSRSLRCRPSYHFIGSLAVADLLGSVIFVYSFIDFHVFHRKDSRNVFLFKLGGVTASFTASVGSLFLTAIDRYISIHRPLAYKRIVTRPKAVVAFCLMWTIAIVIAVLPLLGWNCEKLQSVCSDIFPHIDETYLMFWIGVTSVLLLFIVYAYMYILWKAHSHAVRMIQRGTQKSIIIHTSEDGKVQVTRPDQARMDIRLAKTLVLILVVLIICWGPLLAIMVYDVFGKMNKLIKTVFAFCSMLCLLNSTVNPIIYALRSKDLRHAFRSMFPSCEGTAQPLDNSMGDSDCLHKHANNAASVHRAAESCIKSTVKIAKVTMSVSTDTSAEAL

As to `Cc1ccc(NC(=O)c2nn(-c3ccc(Cl)cc3Cl)c(-c3ccc(OS(=O)(=O)CCC(F)(F)F)cc3)c2C)nc1` [Example 10, 3,3,3-Trifluoro-propane-1-sulfonic acid 4-[2-(2,4-dichlorophenyl)-4-methyl-5-(5-methyl-pyridin-2-ylcarbamoyl)-2H-pyrazol-3-yl]phenyl ester], the IC50 was 1.95 nM.

Usually IC50 stands for the concentration that inhibits the measured activity by half. High values mean weaker potency, low ones greater potency.
